Measurements published in ChEMBL document CHEMBL4270560, “Novel curcumin analogue hybrids: Synthesis and anticancer activity” (Eur J Med Chem, 2018).
Activity calls are given as the source filed them. No cut-off for these calls is given here.

Assays:
SGC-7901 [1] = assay: Induction of mitochondrial membrane depolarization in human SGC7901 cells assessed as cells with mitochondrial membrane potential loss at 800 nM after 48 hrs by JC-1 staining based flow cytometric analysis (reference value: 9.29%); format: functional
SGC-7901 [2] = assay: Cell cycle arrest in human SGC7901 cells assessed as accumulation at G1 phase at 1000 nM after 48 hrs by propidium iodide staining based flow cytometric analysis (reference value: 47.93%); format: functional
SGC-7901 [3] = assay: Induction of apoptosis in human SGC7901 cells assessed as necrotic cells at 800 nM after 48 hrs by Annexin V-FITC/propidium iodide staining based flow cytometric analysis (reference value: 0.052%); format: functional
SGC-7901 [4] = assay: Induction of mitochondrial membrane depolarization in human SGC7901 cells assessed as cells with mitochondrial membrane potential loss at 1000 nM after 48 hrs by JC-1 staining based flow cytometric analysis (reference value: 9.29%); format: functional
SGC-7901 [5] = assay: Induction of mitochondrial membrane depolarization in human SGC7901 cells assessed as cells with intact mitochondrial membrane potential at 1000 nM after 48 hrs by JC-1 staining based flow cytometric analysis (reference value: 87.3%); format: functional
SGC-7901 [6] = assay: Induction of mitochondrial membrane depolarization in human SGC7901 cells assessed as cells with intact mitochondrial membrane potential at 1200 nM after 48 hrs by JC-1 staining based flow cytometric analysis (reference value: 87.3 to 98%); format: functional
SGC-7901 [7] = assay: Induction of apoptosis in human SGC7901 cells assessed as viable cells at 1200 nM after 48 hrs by Annexin V-FITC/propidium iodide staining based flow cytometric analysis (reference value: 95.9 to 96%); format: functional; details: SGC-7901, 48 h, read-out: Activity
SGC-7901 [8] = assay: Induction of mitochondrial membrane potential loss in human SGC7901 cells after 48 hrs by JC-1 staining based flow cytometric analysis; format: functional, cell-based
SGC-7901 [9] = assay: Induction of apoptosis in human SGC7901 cells assessed as necrotic cells at 600 nM after 48 hrs by Annexin V-FITC/propidium iodide staining based flow cytometric analysis (reference value: 0.052%); format: functional
SGC-7901 [10] = assay: Cell cycle arrest in human SGC7901 cells assessed as accumulation at S phase at 1200 nM after 48 hrs by propidium iodide staining based flow cytometric analysis (reference value: 33.30%); format: functional
SGC-7901 [11] = assay: Induction of apoptosis in human SGC7901 cells after 48 hrs by Annexin V-FITC/propidium iodide staining based flow cytometric analysis; format: functional, cell-based
SMMC-7721 = assay: Antiproliferative activity against human SMMC7721 cells after 48 hrs by MTT assay; format: functional, cell-based; details: SMMC-7721, 48 h
SGC-7901 [12] = assay: Cell cycle arrest in human SGC7901 cells assessed as accumulation at G1 phase at 1200 nM after 48 hrs by propidium iodide staining based flow cytometric analysis (reference value: 47.93%); format: functional
SGC-7901 [13] = assay: Induction of apoptosis in human SGC7901 cells assessed as necrotic cells at 1000 nM after 48 hrs in presence of NAC by Annexin V-FITC/propidium iodide staining based flow cytometric analysis (reference value: 0.304%); format: functional
SGC-7901 [14] = assay: Cell cycle arrest in human SGC7901 cells assessed as accumulation at G1 phase at 800 nM after 48 hrs by propidium iodide staining based flow cytometric analysis (reference value: 47.93%); format: functional
SGC-7901 [15] = assay: Induction of apoptosis in human SGC7901 cells assessed as necrotic cells at 1200 nM after 48 hrs in presence of NAC by Annexin V-FITC/propidium iodide staining based flow cytometric analysis (reference value: 0.304%); format: functional
SGC-7901 [16] = assay: Induction of apoptosis in human SGC7901 cells assessed as late apoptotic cells at 1200 nM after 48 hrs in presence of NAC by Annexin V-FITC/propidium iodide staining based flow cytometric analysis (reference value: 2.85%); format: functional
SGC-7901 [17] = assay: Cell cycle arrest in human SGC7901 cells assessed as accumulation at G1 phase at 600 nM after 48 hrs by propidium iodide staining based flow cytometric analysis (reference value: 47.93%); format: functional
SGC-7901 [18] = assay: Induction of apoptosis in human SGC7901 cells assessed as early apoptotic cells at 600 nM after 48 hrs by Annexin V-FITC/propidium iodide staining based flow cytometric analysis (reference value: 2.30%); format: functional
SGC-7901 [19] = assay: Induction of apoptosis in human SGC7901 cells assessed as increase in Bax to Bcl-2 ratio level at 600 to 1200 nM after 48 hrs by Western blot analysis; format: functional, cell-based
SGC-7901 [20] = assay: Induction of apoptosis in human SGC7901 cells assessed as viable cells at 1000 nM after 48 hrs in presence of NAC by Annexin V-FITC/propidium iodide staining based flow cytometric analysis (reference value: 96%); format: functional; details: SGC-7901, 48 h, read-out: Activity
SGC-7901 [21] = assay: Induction of apoptosis in human SGC7901 cells assessed as early apoptotic cells at 1200 nM after 48 hrs in presence of NAC by Annexin V-FITC/propidium iodide staining based flow cytometric analysis (reference value: 0.851%); format: functional
SGC-7901 [22] = assay: Induction of apoptosis in human SGC7901 cells assessed as necrotic cells at 1000 nM after 48 hrs by Annexin V-FITC/propidium iodide staining based flow cytometric analysis (reference value: 0.052 to 0.304%); format: functional
SGC-7901 [23] = assay: Induction of apoptosis in human SGC7901 cells assessed as decrease in PARP level at 600 to 1200 nM after 48 hrs by Western blot analysis; format: functional, cell-based
SGC-7901 [24] = assay: Induction of apoptosis in human SGC7901 cells assessed as viable cells at 1200 nM after 48 hrs in presence of NAC by Annexin V-FITC/propidium iodide staining based flow cytometric analysis (reference value: 96%); format: functional; details: SGC-7901, 48 h, read-out: Activity
SGC-7901 [25] = assay: Induction of apoptosis in human SGC7901 cells assessed as early apoptotic cells at 1000 nM after 48 hrs by Annexin V-FITC/propidium iodide staining based flow cytometric analysis (reference value: 0.851 to 2.30%); format: functional
SGC-7901 [26] = assay: Induction of mitochondrial membrane depolarization in human SGC7901 cells assessed as cells with intact mitochondrial membrane potential at 1200 nM after 48 hrs in presence of NAC by JC-1 staining based flow cytometric analysis (reference value: 98%); format: functional
[27] = molecular target: Thioredoxin reductase (Homo sapiens) (UniProt Q16881+Q9NNW7+Q86VQ6); assay: Inhibition of TrxR in human SGC7901 cells assessed as p38 phosphorylation at 600 to 1200 nM after 48 hrs by Western blot analysis; format: cell-based
U-87 MG = assay: Antiproliferative activity against human U87 cells after 48 hrs by MTT assay; format: functional, cell-based, U-87MG ATCC

Structure (SMILES): COc1cc(OC)c2c(=O)c(OCCCOc3ccccc3/C=C/C(=O)/C=C/c3ccccn3)c(-c3cc(OC)c(OC)c(OC)c3)oc2c1
- Activity (SGC-7901 [1]): 21.2%
- Activity (SGC-7901 [2]): 55.28%
- Activity (SGC-7901 [3]): 0.425%
- Activity (SGC-7901 [4]): 39.9%
- Activity (SGC-7901 [5]): 56.3%
- Activity (SGC-7901 [6]): 35.4 - 40.2%
- viability at 1.2 µM (SGC-7901 [7]): 24.6 to 43.7%
- Activity (SGC-7901 [8]): Dose-dependent effect
- Activity (SGC-7901 [9]): 0.132%
- Activity (SGC-7901 [10]): 36.26%
- Activity (SGC-7901 [11]): Dose-dependent effect
- IC50 (SMMC-7721): 3.18 µM
- Activity (SGC-7901 [12]): 45.78%
- Activity (SGC-7901 [13]): 0.92%
- Activity (SGC-7901 [14]): 51.29%
- Activity (SGC-7901 [15]): 0.225%
- Activity (SGC-7901 [16]): 21.2%
- Activity (SGC-7901 [17]): 48.92%
- Activity (SGC-7901 [18]): 5.79%
- Activity (SGC-7901 [19]): Active
- viability at 1 µM (SGC-7901 [20]): 94.1%
- Activity (SGC-7901 [21]): 4.46%
- Activity (SGC-7901 [22]): 0.256 - 1.04%
- Activity (SGC-7901 [23]): Active
- viability at 1.2 µM (SGC-7901 [24]): 74.1%
- Activity (SGC-7901 [25]): 24.7 - 32.2%
- Activity (SGC-7901 [26]): 97.5%
- inhibition [27]: Active
- IC50 (U-87 MG): 3.93 µM
